# Laboratory results reported in ChEMBL document CHEMBL1909046, “DrugMatrix in vitro pharmacology data”.
# Assays:
# [1] = biological target: Beta-2 adrenergic receptor (Homo sapiens, UniProt P07550); assay: DRUGMATRIX: Adrenergic beta2 radioligand binding (ligand: [3H] CGP-12177); assay type: cell membranes, CHO, Membrane; conditions: Not Active = under 50% inhibition at 10 µM
# [2] = DRUGMATRIX: ATPase, Na+/K+ enzyme inhibition (substrate: ATP); assay type: tissue-based, Sus scrofa, Heart; conditions: Not Active = under 50% inhibition at 10 µM
# [3] = DRUGMATRIX: beta-Lactamase enzyme inhibition (substrate: Nitrocefin); set-up: species or system Bacillus cereus; conditions: Not Active = under 50% inhibition at 10 µM
# [4] = DRUGMATRIX: GABAA, Chloride Channel, TBOB radioligand binding (ligand: [3H] TBOB); assay type: cell membranes, Rattus norvegicus, Wistar, Cerebral cortex, Membrane; conditions: Not Active = under 50% inhibition at 10 µM
# [5] = DRUGMATRIX: Interleukin IL-1 radioligand binding (ligand: [125I] interleukin 1beta); assay type: cell membranes, Membrane; conditions: nih3t3; Not Active = under 50% inhibition at 10 µM
# [6] = biological target: T1, Muscarinic acetylcholine receptor M5 (Homo sapiens, UniProt P08912); assay type: cell membranes, CHO-K1, Membrane; also: in other assays of this panel Not Active means under 50% inhibition at 10 µM
# T1 sequence (P08912 whole entry): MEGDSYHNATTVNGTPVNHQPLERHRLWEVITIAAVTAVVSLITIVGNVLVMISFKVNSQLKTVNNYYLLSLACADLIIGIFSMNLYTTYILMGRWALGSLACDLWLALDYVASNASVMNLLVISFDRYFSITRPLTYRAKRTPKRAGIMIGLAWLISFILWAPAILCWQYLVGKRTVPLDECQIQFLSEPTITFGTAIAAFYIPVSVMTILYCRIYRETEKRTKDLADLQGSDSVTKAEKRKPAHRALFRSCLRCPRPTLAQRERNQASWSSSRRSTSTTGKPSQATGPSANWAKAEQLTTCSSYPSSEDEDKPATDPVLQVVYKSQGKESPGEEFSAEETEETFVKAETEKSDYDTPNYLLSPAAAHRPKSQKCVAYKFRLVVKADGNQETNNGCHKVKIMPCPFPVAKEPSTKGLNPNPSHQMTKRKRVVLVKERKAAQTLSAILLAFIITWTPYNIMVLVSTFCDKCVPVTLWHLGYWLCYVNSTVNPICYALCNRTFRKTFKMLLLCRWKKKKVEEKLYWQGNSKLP
# Cytochrome P450 2D6 = Cytochrome P450 2D6 (Homo sapiens, UniProt P10635); conditions: bti-tn-5b1-4; also: in other assays of this panel Not Active means under 50% inhibition at 10 µM
# Mu-type opioid receptor = Mu-type opioid receptor (Homo sapiens, UniProt P35372); assay: DRUGMATRIX: Opiate mu (OP3, MOP) radioligand binding (ligand: [3H] Diprenorphine); assay type: cell membranes, CHO-K1, Membrane; conditions: cho-k1; Not Active = under 50% inhibition at 10 µM
# Sequence of Mu-type opioid receptor (P35372 whole entry): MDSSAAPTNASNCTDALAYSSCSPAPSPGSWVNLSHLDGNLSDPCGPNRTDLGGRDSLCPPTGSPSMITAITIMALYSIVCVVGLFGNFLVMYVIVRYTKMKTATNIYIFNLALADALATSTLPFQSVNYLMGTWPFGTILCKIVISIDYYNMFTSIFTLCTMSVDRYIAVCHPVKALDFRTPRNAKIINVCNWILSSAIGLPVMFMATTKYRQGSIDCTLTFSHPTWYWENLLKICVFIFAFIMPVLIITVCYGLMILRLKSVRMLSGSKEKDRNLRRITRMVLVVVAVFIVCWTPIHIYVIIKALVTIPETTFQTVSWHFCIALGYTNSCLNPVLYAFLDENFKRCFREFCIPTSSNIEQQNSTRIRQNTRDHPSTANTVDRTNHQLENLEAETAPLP
# Sequence of Cytochrome P450 2D6 (P10635 whole entry): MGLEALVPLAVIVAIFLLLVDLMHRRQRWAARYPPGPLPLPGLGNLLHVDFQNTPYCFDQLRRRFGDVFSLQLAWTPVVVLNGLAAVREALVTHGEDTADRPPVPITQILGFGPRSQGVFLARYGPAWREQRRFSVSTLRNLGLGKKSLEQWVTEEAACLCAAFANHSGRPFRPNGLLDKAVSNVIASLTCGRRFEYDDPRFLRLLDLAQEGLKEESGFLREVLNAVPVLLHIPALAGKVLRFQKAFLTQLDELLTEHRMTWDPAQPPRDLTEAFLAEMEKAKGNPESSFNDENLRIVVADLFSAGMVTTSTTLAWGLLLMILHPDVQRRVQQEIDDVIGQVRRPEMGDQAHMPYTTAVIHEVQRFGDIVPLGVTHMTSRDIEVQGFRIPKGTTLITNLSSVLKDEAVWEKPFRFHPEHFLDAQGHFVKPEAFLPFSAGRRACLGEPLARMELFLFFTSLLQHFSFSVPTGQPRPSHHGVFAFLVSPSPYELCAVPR
Molecule,IC50 ([1]; cho),IC50 [2],Ki [2],IC50 [3],Ki [3],IC50 [4],Ki [4],IC50 [5],Ki [5],IC50 ([6]; cho-k1),IC50 (Cytochrome P450 2D6),Ki (Cytochrome P450 2D6),IC50 (Mu-type opioid receptor),IC50 ([1]; read-out: IC50) [µM],Ki ([1]; read-out: Ki) [µM],IC50 ([6]; read-out: IC50) [µM],Ki ([6]; read-out: Ki) [µM],IC50 ([2]; read-out: IC50) [µM],Ki ([1]; cho),Ki ([6]; cho-k1)
O=C/C=C/c1ccccc1,Not Active,Not Active,Not Active,Not Active,Not Active,Not Active,Not Active,Not Active,Not Active,Not Active,Not Active,Not Active,,,,,,,,
NCCCC(O)(P(=O)(O)O)P(=O)(O)O [ALENDRONIC ACID],Not Active,Not Active,Not Active,Not Active,Not Active,Not Active,Not Active,Not Active,Not Active,Not Active,,,Not Active,,,,,,,
Cc1nnc2n1-c1ccc(Cl)cc1C(c1ccccc1)=NC2 [ALPRAZOLAM],Not Active,Not Active,Not Active,Not Active,Not Active,Not Active,Not Active,Not Active,Not Active,Not Active,Not Active,Not Active,,,,,,,,
CN1[C@@H]2CC[C@H]1C[C@@H](OC(=O)C(CO)c1ccccc1)C2 (stereo not given in full) [ATROPINE],Not Active,Not Active,Not Active,Not Active,Not Active,Not Active,Not Active,Not Active,Not Active,,,,Not Active,,,,,,,
COc1ccc2cc3[n+](cc2c1OC)CCc1cc2c(cc1-3)OCO2.[Cl-] [BERBERINE CHLORIDE],Not Active,Not Active,Not Active,Not Active,Not Active,Not Active,Not Active,Not Active,Not Active,Not Active,,,Not Active,,,,,,,
Cc1cc2c(OCC(CNC(C)(C)C)OC(=O)c3ccccc3)cccc2[nH]1 (stereo not given) [BOPINDOLOL],,Not Active,Not Active,Not Active,Not Active,Not Active,Not Active,Not Active,Not Active,Not Active,,,Not Active,0.02,0.014,,,,,
COc1cc(N)c(Cl)cc1C(=O)NC1CCN(CCCOc2ccc(F)cc2)CC1OC (stereo not given) [CISAPRIDE],Not Active,Not Active,Not Active,Not Active,Not Active,Not Active,Not Active,Not Active,Not Active,Not Active,,,Not Active,,,,,,,
C[C@@H]1C[C@H]2[C@@H]3CCC4=CC(=O)C=C[C@]4(C)[C@@]3(F)[C@@H](O)C[C@]2(C)[C@@]1(O)C(=O)CO [DEXAMETHASONE],Not Active,Not Active,Not Active,Not Active,Not Active,Not Active,Not Active,Not Active,Not Active,Not Active,,,Not Active,,,,,,,
OC(CCCN1CCCCC1)(c1ccccc1)c1ccccc1 [DIPHENIDOL],Not Active,Not Active,Not Active,Not Active,Not Active,Not Active,Not Active,Not Active,Not Active,,,,Not Active,,,1.19,0.855,,,
C[C@@H](CO)NC(=O)[C@@H]1C=C2c3cccc4[nH]cc(c34)C[C@H]2N(C)C1 [ERGONOVINE],Not Active,Not Active,Not Active,Not Active,Not Active,Not Active,Not Active,Not Active,Not Active,Not Active,Not Active,Not Active,,,,,,,,
COc1cc([C@@H]2c3cc4c(cc3[C@@H](O[C@@H]3O[C@@H]5CO[C@@H](C)O[C@H]5[C@H](O)[C@H]3O)[C@H]3COC(=O)[C@H]23)OCO4)cc(OC)c1O [ETOPOSIDE],Not Active,Not Active,Not Active,Not Active,Not Active,Not Active,Not Active,Not Active,Not Active,Not Active,,,Not Active,,,,,,,
COc1ccc2c3c1O[C@H]1C[C@@H](O)C=C[C@@]31CCN(C)C2 [GALANTAMINE],Not Active,Not Active,Not Active,Not Active,Not Active,Not Active,Not Active,Not Active,Not Active,Not Active,,,Not Active,,,,,,,
CC(C)=CCC/C(C)=C/CO [GERANIOL],Not Active,Not Active,Not Active,Not Active,Not Active,Not Active,Not Active,Not Active,Not Active,Not Active,,,Not Active,,,,,,,
CC(=O)[C@@]1(O)CC[C@H]2[C@@H]3CCC4=CC(=O)CC[C@]4(C)[C@H]3CC[C@@]21C [HYDROXYPROGESTERONE],Not Active,Not Active,Not Active,Not Active,Not Active,Not Active,Not Active,Not Active,Not Active,Not Active,,,Not Active,,,,,,,
C[n+]1ccc(-c2cc[n+](C)cc2)cc1.[Cl-].[Cl-] [PARAQUAT DICHLORIDE],Not Active,Not Active,Not Active,Not Active,Not Active,Not Active,Not Active,Not Active,Not Active,Not Active,Not Active,Not Active,,,,,,,,
CC(C)NCC(O)COc1cccc2[nH]ccc12 (stereo not given) [PINDOLOL],,Not Active,Not Active,Not Active,Not Active,Not Active,Not Active,Not Active,Not Active,Not Active,,,Not Active,,,,,,,
CCCNCC(O)COc1ccccc1C(=O)CCc1ccccc1 (stereo not given) [PROPAFENONE],,Not Active,Not Active,Not Active,Not Active,Not Active,Not Active,Not Active,Not Active,Not Active,,,Not Active,,,,,,,
C[C@@H]1O[C@@H](O[C@@H]2C=C3CC[C@@H]4[C@H](CC[C@]5(C)[C@@H](c6ccc(=O)oc6)CC[C@]45O)[C@@]3(C)CC2)[C@H](O)[C@H](O)[C@H]1O [PROSCILLARIDIN],Not Active,,,Not Active,Not Active,Not Active,Not Active,Not Active,Not Active,Not Active,Not Active,Not Active,,,,,,0.088,,
AURANOFIN,Not Active,Not Active,Not Active,Not Active,Not Active,Not Active,Not Active,Not Active,Not Active,Not Active,Not Active,Not Active,,,,,,,Not Active,Not Active
GADOPENTETATE DIMEGLUMINE,Not Active,Not Active,Not Active,Not Active,Not Active,Not Active,Not Active,Not Active,Not Active,Not Active,Not Active,Not Active,,,,,,,Not Active,Not Active
GENTAMICIN,Not Active,Not Active,Not Active,Not Active,Not Active,Not Active,Not Active,Not Active,Not Active,Not Active,Not Active,Not Active,,,,,,,Not Active,Not Active
GRAMICIDIN,Not Active,,,Not Active,Not Active,Not Active,Not Active,Not Active,Not Active,Not Active,Not Active,Not Active,,,,,,5.14,Not Active,Not Active
NYSTATIN,Not Active,Not Active,Not Active,Not Active,Not Active,Not Active,Not Active,Not Active,Not Active,Not Active,Not Active,Not Active,,,,,,,Not Active,Not Active
